Measurements: patent US9073882B2, “Inhibitors of the renal outer medullary potassium channel” (Merck Sharp & Dohme Corp., priority 2010, dated 2015)

molecular target: hROMK1 (Kir1.1) (Homo sapiens (Human), UniProt P48048); experiment: ^86Rb^+ Efflux Assay; type: cell-based; conditions: CHO-DHFR- cells stably expressing hROMK1 (Kir1.1); value in parentheses at the end of each Example; read-out: IC50 in the ^86Rb^+ Efflux Assay
Sequence (P48048 whole entry): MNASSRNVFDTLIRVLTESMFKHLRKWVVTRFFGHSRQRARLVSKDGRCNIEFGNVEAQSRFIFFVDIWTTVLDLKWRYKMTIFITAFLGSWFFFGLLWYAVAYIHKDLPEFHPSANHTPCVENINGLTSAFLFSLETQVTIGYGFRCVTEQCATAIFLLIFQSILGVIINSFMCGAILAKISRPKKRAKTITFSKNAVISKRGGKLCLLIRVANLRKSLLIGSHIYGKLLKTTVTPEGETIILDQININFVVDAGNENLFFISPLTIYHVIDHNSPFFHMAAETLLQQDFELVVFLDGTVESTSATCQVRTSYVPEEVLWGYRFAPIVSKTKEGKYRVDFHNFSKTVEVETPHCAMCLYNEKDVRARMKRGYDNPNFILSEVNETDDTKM

IC50 [nM] | Compound
50 | N#Cc1ccc2c(c1)CCC(N1CCN(CCc3ccc([N+](=O)[O-])cc3)CC1)C2 (centres unmarked) [Example 3, 6-{4-[2-(4-Nitrophenyl)ethyl]piperazin-1yl}-5,6,7,8-tetrahydronaphthalene-2-carbonitrile]
52 | COc1cc(CCN2CCN(CCc3ccc([N+](=O)[O-])cc3)CC2)ccc1C#N [Example 22, 2-Methoxy-4-(2-{4-[2-(4-nitrophenyl)ethyl]piperazin-1-yl}ethyl)benzonitrile]
62 | Cc1cc(C#N)ccc1CCN1CCN(CCc2ccc([N+](=O)[O-])cc2)CC1 [Example 23, 3-Methyl-4-(2-{4-[2-(4-nitrophenyl)ethyl]piperazin-1-yl}ethyl)benzonitrile]
190 | Cc1cc(CCN2CCN(CCc3ccc([N+](=O)[O-])cc3)CC2)ccc1C#N [Example 24, 2-Methyl-4-(2-{4-[2-(4-nitrophenyl)ethyl]piperazin-1-yl}ethyl)benzonitrile]
83 | N#Cc1ccc2c(c1)CC[C@H](N1CCN(CCc3ccc([N+](=O)[O-])cc3)CC1)C2 [Example 25, (6S)-6-{4-[2-(4-Nitrophenyl)ethyl]piperazin-1-yl}-5,6,7,8-tetrahydronaphthalene-2-carbonitrile]
66 | N#Cc1ccc2c(c1)CC[C@@H](N1CCN(CCc3ccc([N+](=O)[O-])cc3)CC1)C2 [Example 26, (6R)-6-{4-[2-(4-Nitrophenyl)ethyl]piperazin-1-yl}-5,6,7,8-tetrahydronaphthalene-2-carbonitrile]
980 | c1cc2nonc2cc1CCN1CCN(C2CCc3cc(-n4cnnn4)ccc3C2)CC1 (centres unmarked) [Example 27, 5-(2-{4-[6-(1H-Tetrazol-1-yl)-1,2,3,4-tetrahydronaphthalen-2-yl]piperazin-1-yl}ethyl)-2,1,3-benzoxadiazole]
160 | N#Cc1c(F)cc(CCN2CCN(CCc3ccc([N+](=O)[O-])cc3)CC2)cc1F [Example 28, 2,6-Difluoro-4-(2-{4-[2-(4-nitrophenyl)ethyl]piperazin-1-yl}ethyl)benzonitrile]
730 | N#Cc1ccc2c(c1)CC(N1CCN(CCc3ccc([N+](=O)[O-])cc3)CC1)C2 (centres unmarked) [Example 29, 2-{4-[2-(4-Nitrophenyl)ethyl]piperazin-1-yl}-2,3-dihydro-1H-indene-5-carbonitrile]
300 | COc1cc(C#N)ccc1CCN1CCN(CCc2ccc([N+](=O)[O-])cc2)CC1 [Example 31, 3-Methoxy-4-(2-{4-[2-(4-nitrophenyl)ethyl]piperazin-1-yl}ethyl)benzonitrile]
240 | N#Cc1ccc(CCN2CCN(CCc3ccc([N+](=O)[O-])cc3)CC2)cc1F [Example 32, 2-Fluoro-4-(2-{4-[2-(4-nitrophenyl)ethyl]piperazin-1-yl}ethyl)benzonitrile]
210 | O=C1OCc2cc(CCN3CCN(C4CCc5cc6nonc6cc5C4)CC3)ccc21 (centres unmarked) [Example 33, 5-{2-[4-(5,6,7,8-Tetrahydronaphtho[2,3-c][1,2,5]oxadiazol-6-yl)piperazin-1-yl]ethyl}-2-benzofuran-1(3H)-one]
270 | N#Cc1cccc2c1CCC2CN1CCN(CCc2ccc3c(c2)COC3=O)CC1 (centres unmarked) [Example 34, 1-((4-(2-(1-Oxo-1,3-dihydroisobenzofuran-5-yl)ethyl)piperazin-1-yl)methyl)-2,3-dihydro-1H-indene-4-carbonitrile]
92 | N#Cc1ccc2c(c1)OCCC2CN1CCN(CCc2ccc3c(c2)COC3=O)CC1 (centres unmarked) [Example 36, 4-({4-[2-(1-Oxo-1,3-dihydro-2-benzofuran-5-yl)ethyl]piperazin-1-yl}methyl)-3,4-dihydro-2H-chromene-7-carbonitrile]
460 | N#Cc1ccc2c(c1)CCCC2CN1CCN(CCc2ccc3c(c2)COC3=O)CC1 (centres unmarked) [Example 37, 5-({4-[2-(1-Oxo-1,3-dihydro-2-benzofuran-5-yl)ethyl]piperazin-1-yl}methyl)-5,6,7,8-tetrahydronaphalene-2-carbonitrile]

Compound | IC50 [nM]
O=[N+]([O-])c1ccc(CCN2CCN(CCc3ccc([N+](=O)[O-])cn3)CC2)cc1 [Example 2, 1-[2-(4-Nitrophenyl)ethyl]-4-[2-(5-nitropyridin-2-yl)ethyl]piperazine] | 280
O=[N+]([O-])c1ccc(CCN2CCN(CCc3ccc([N+](=O)[O-])cc3)C(CF)C2)cc1 (centres unmarked) [Example 5, 2-(Fluoromethyl)-1,4-bis[2-(4-nitrophenyl)ethyl]piperazine] | 180
COC(=O)[C@H](Cc1ccc([N+](=O)[O-])cc1)N1CCN(CCc2ccc([N+](=O)[O-])cc2)CC1 [Example 8, Methyl(2S)-3-(4-nitrophenyl)-2-{4-[2-(4-nitrophenyl)ethyl]piperazin-1-yl}propanoate] | 510
CC1(C)CN(CCc2ccc([N+](=O)[O-])cc2)CCN1CCc1ccc([N+](=O)[O-])cc1 [Example 9, 2,2-Dimethyl-1,4-bis[2-(4-nitrophenyl)ethyl]piperazine] | 210
O=[N+]([O-])c1ccc(CCN2C[C@@H]3C[C@H]2CN3CCc2ccc([N+](=O)[O-])cc2)cc1 [Example 10, (1S,4S)-2,5-Bis[2-(4-nitrophenyl)ethyl]-2,5-diazabicyclo[2.2.1]heptane] | 110
O=[N+]([O-])c1ccc(CCN2CCN(CCc3ccc([N+](=O)[O-])cc3)C(C3CC3)C2)cc1 (centres unmarked) [Example 11, 2-Cyclopropyl-1,4-bis[2-(4-nitrophenyl)ethyl]piperazine] | 860
O=[N+]([O-])c1ccc(CCN2CCN(CCc3ccc([N+](=O)[O-])cc3)C(C(F)F)C2)cc1 (centres unmarked) [Example 12, 2-(Difluoromethyl)-1,4-bis[2-(4-nitrophenyl)ethyl]piperazine] | 440
O=[N+]([O-])c1ccc(CCN2CCN(CCc3ccc([N+](=O)[O-])cc3)C(CO)C2)cc1 (centres unmarked) [Example 13, {1,4-Bis[2-(4-nitrophenyl)ethyl]piperazin-2-yl}methanol] | 260
O=[N+]([O-])c1ccc(CCN2CCN(CCc3ccc([N+](=O)[O-])cc3C(F)(F)F)CC2)cc1 [Example 15, 1-[2-(4-Nitrophenyl)ethyl]-4-{2-[4-nitro-2-(trifluoromethyl)phenyl]ethyl}piperazine] | 440
O=[N+]([O-])c1ccc(CCN2CC3CCC(C2)N3CCc2ccc([N+](=O)[O-])cc2)cc1 [Example 16, 3,8-Bis-[2-(4-nitrophenyl)ethyl]-3,8-diazabicyclo[3.2.1]octane] | 190
CC(Cc1ccc([N+](=O)[O-])cc1)N1CCN(C(C)Cc2ccc([N+](=O)[O-])cc2)CC1 (centres unmarked) [Example 19, 1,4-Bis[1-methyl-2-(4-nitrophenyl)ethyl]piperazine] | 330
O=[N+]([O-])c1ccc(CCN2CC3CCC2CN3CCc2ccc([N+](=O)[O-])cc2)cc1 [Example 20, 2,5-Bis[2-(4-nitrophenyl)ethyl]-2,5-diazabicyclo[2.2.2]octane] | 210
COC(=O)CC1CN(CCc2ccc([N+](=O)[O-])cc2)CCN1CCc1ccc([N+](=O)[O-])cc1 (centres unmarked) [Example 21, Methyl{1,4-bis[2-(4-nitrophenyl)ethyl]piperazin-2-yl}acetate] | 390
O=[N+]([O-])c1ccc(CCN2CCN(C3Cc4ccc([N+](=O)[O-])cc4C3)CC2)cc1 (centres unmarked) [Example 30, 1-(5-Nitro-2,3-dihydro-1H-inden-2-yl)-4-[2-(4-nitrophenyl)ethyl]piperazine] | 310

same assay, conditions: Table 1; CHO-DHFR- cells stably expressing hROMK1 (Kir1.1); read-out: ^86Rb^+ Efflux Assay IC50

Compound | IC50 [nM]
CC1(C)CN(CCc2ccc([N+](=O)[O-])cc2)CCN1CCc1ccc([N+](=O)[O-])cc1 [Example 9, 2,2-Dimethyl-1,4-bis[2-(4-nitrophenyl)ethyl]piperazine] | 210
O=[N+]([O-])c1ccc(CCN2C[C@@H]3C[C@H]2CN3CCc2ccc([N+](=O)[O-])cc2)cc1 [Example 10, (1S,4S)-2,5-Bis[2-(4-nitrophenyl)ethyl]-2,5-diazabicyclo[2.2.1]heptane] | 110
N#Cc1ccc2c(c1)CC[C@@H](N1CCN(CCc3ccc([N+](=O)[O-])cc3)CC1)C2 [Example 26, (6R)-6-{4-[2-(4-Nitrophenyl)ethyl]piperazin-1-yl}-5,6,7,8-tetrahydronaphthalene-2-carbonitrile] | 66
